Laboratory results: PubChem BioAssay (NCI)
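Compound exposure: 48 hours, 5 concentrations, 96-well plates. GI50 marks 50% less growth. TGI marks complete inhibition of growth.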

How the values were obtained:
Assay in all cases: growth of human tumour cells (NCI), 48 h
OVCAR-4 ovarian = test system: OVCAR-4 ovarian
MDA-MB-435 = test system: MDA-MB-435
786-0 renal = test system: 786-0 renal
BT-549 breast = test system: BT-549 breast
ACHN renal = test system: ACHN renal
TK-10 renal = test system: TK-10 renal
A549 NSCLC = test system: A549 NSCLC
HCC-2998 colon = test system: HCC-2998 colon

SMILES | TGI (OVCAR-4 ovarian) [µM] | TGI (MDA-MB-435) [µM] | TGI (786-0 renal) [µM] | TGI (BT-549 breast) [µM] | TGI (ACHN renal) [µM] | TGI (TK-10 renal) [µM] | TGI (A549 NSCLC) [µM] | TGI (HCC-2998 colon) [µM] | GI50 (OVCAR-4 ovarian) [µM] | GI50 (MDA-MB-435) [µM] | GI50 (786-0 renal) [µM] | GI50 (BT-549 breast) [µM] | GI50 (ACHN renal) [µM] | GI50 (TK-10 renal) [µM] | GI50 (A549 NSCLC) [µM] | GI50 (HCC-2998 colon) [µM]
CNS(=O)(=O)c1ccccc1C(=N)c1ccccc1 | > 100 | > 100 | > 100 | > 100 | > 100 | > 100 | > 100 |  |  |  |  |  |  |  |  | 
C/C(=C1/N=C(c2ccccc2)OC1=O)c1ccc(C)cc1 | > 100 | > 100 | > 100 | > 100 | > 100 | > 100 | > 100 | > 100 |  |  |  |  |  |  |  | 
C[C@@H]1[C@H]2[C@H](C=C3[C@@H]4CC[C@H]5Cc6nc7c(nc6C[C@]5(C)[C@H]4C[C@@H](O)[C@@]32C)C[C@@H]2CC[C@H]3C4=C[C@@H]5O[C@@]6(CC[C@](C)(CO)O6)[C@@H](C)[C@@]5(O)[C@@]4(C)[C@H](O)C[C@@H]3[C@@]2(C)C7)O[C@]12CCC(C)(C)O2 | > 69.7 | 24.3 | 0.752 | 15 | > 100 | 72.5 | 14.6 | 56.5 | 7.05 | 2.8 | 0.148 | 0.338 | 0.843 | 13.3 | 0.809 | 16
O=[N+]([O-])c1cccc(/C=C/c2ccccn2)c1 | > 100 | > 100 | > 100 |  | > 100 |  | > 100 | > 100 | 18.8 | 67 | 36.7 |  | 5.81 |  | 27.9 | 44.9
COc1cc([N+](=O)[O-])c(S(=O)(=O)O)cc1N | > 100 | > 100 | > 100 | > 100 | > 100 | > 100 | > 100 |  |  |  |  |  |  |  |  | 
O=C(C[C@@]1(O)C(=O)Nc2c(Cl)ccc(Cl)c21)c1ccc(C2CC2)cc1 | 39.8 | 0.232 | 20 | 11.7 | 31.3 | 46.6 | 24 | 14.8 | 6.01 | 0.033 | 1.39 | 0.445 | 0.726 | 15.1 | 0.729 | 0.888
Cc1cc(O)c(C2=NN(c3ccc(S(N)(=O)=O)cc3)C(c3ccccc3O)C2)cc1Cl (configuration not stated) | 9.58 | 4.32 | 3.88 | 6.11 | 8.55 | 7.32 | 7.85 | 3.81 | 2.89 | 2.01 | 2.04 | 2.08 | 2.58 | 3.03 | 2.67 | 2
C=CC(=O)NCCOc1cccc(Nc2cc(NCCCNC(=O)C3CCC3)c(Br)cn2)c1 | 10.7 | 6.03 | > 25 | 1.93 | > 25 | 7.77 | 14.7 | 7.59 | 1.26 | 2.49 | 0.989 | 0.603 | 0.75 | 1.6 | 0.881 | 2.49
CCN1/C(=C/C=C/C=C/c2sc3ccccc3[n+]2CC)Sc2ccccc21 | 2.51 | 1.31 | 1.71 | 1.18 | 3.28 | 3.97 | 2.59 | 1.69 | 0.261 | 0.314 | 0.516 | 0.213 | 0.566 | 0.472 | 0.332 | 0.381
CCN1CCC2(CC1)NC(=O)c1c(c3ccc(Cl)c(Cl)c3n1C)C2C#N (configuration not stated) | 15.1 | 3.77 | 3.13 | 15.2 | 12.8 | 5.38 | 13.5 | 3.26 | 3.83 | 1.93 | 1.7 | 3.61 | 2.92 | 1.8 | 3.13 | 1.73
Fc1c[c-]c(-c2ccccn2)c(F)c1.[CH3-].[Pt+2].c1ccc([PH+](c2ccccc2)c2ccccn2)cc1 | 7.06 | 3.45 | 4.03 |  | 2.49 | 12.9 | > 100 | 3.53 | 1.57 | 1.74 | 1.93 |  | 1.2 | 3.59 | 2.66 | 1.83
CSC1=Nc2c(c(C)c(-c3ccccc3)n2CCCCl)C2=NC(=O)CN12 | 44.9 | 4.65 | 61.7 | 35.6 | 37.7 | 78.3 | 65.8 | 19.7 | 6.74 | 2.03 | 8.57 | 4.93 | 9.48 | 8.45 | 7.68 | 4.52
CCc1nc(-n2c(CC)nc3ccccc3c2=O)nc(N)c1-c1ccc(Cl)cc1 | > 100 | > 100 | > 100 | > 100 | > 100 | > 100 | > 100 | > 21 | > 100 | 7.12 | 8.13 | > 100 | > 27.1 | 35.6 | 2.38 | 2.41
CN(C)c1ccc(/C=C/c2ccnc3ccc4ccccc4c23)cc1 |  | > 100 | > 100 | > 100 | 57.3 | 49.9 | > 100 |  |  |  |  |  |  |  |  | 
CCC(C(=O)c1cccs1)C(O)(C(F)(F)F)C(F)(F)F (configuration not stated) | > 100 | > 100 | > 100 | > 100 | > 100 | > 100 | > 100 |  |  |  |  |  |  |  |  | 
c1ccc(CCCNc2nnnc3ccccc23)cc1 | > 100 | > 100 | > 100 | > 100 | > 100 | > 100 | > 100 |  |  |  |  |  |  |  |  | 
COc1cc(OC)cc(-c2ccc(-c3ccc(C(=N)N)s3)s2)c1 | 3.62 | 0.991 | 3.06 |  | 3.25 | 3.39 | 3.37 | 2.58 | 1.44 | 0.271 | 1.23 |  | 1.45 | 1.84 | 1.63 | 1.03
O=S(=O)(CC#CCCCOCC#Cc1ccccc1C#CCS(=O)(=O)c1ccccc1)c1ccccc1 |  | 62.4 | 35.3 | 34.8 | 55 | > 100 | > 100 |  |  | 26 | 18.9 | 19 | 24.3 | > 100 | 33.6 | 
